Measurements reported in paper PMC8305236, “New Broth Macrodilution Volatilization Method for Antibacterial Susceptibility Testing of Volatile Agents and Evaluation of Their Toxicity Using Modified MTT Assay In Vitro” (Molecules, 2021).
In brackets after ≈: the same amount, converted by molar mass. Like-named read-outs stand apart in the source and are kept apart here.

Tests used:
S. aureus [1] = settings: cited from earlier work
[2] = test system: Streptococcus pyogenes ATCC 19615; test: broth macrodilution volatilization method (liquid and vapor phase MIC); type: cell-based; settings: for MIC: Streptococcus pyogenes, ATCC19615
Excerpt: (§1) The following four bacterial standard strains from the American Type Culture Collection (ATCC, Manassas, VA, USA) were used: Haemophilus influenzae ATCC 49247, Staphylococcus aureus ATCC 29213, Streptococcus pneumoniae ATCC 49619, and Streptococcus pyogenes ATCC 19615. Cultivation and assay media (broth/agar) were Mueller–Hinton (MH) complemented by Haemophilus Tested Medium (H. influenzae), MH (S. aureus), and Brain Heart Infusion (S. pneumoniae and S. pyogenes). The pH of the broths was equilibrated to a final value of 7.6 using Trizma base (Sigma-Aldrich, Praha, Czech Republic). […] cultivation media were purchased from Oxoid (Basingstoke, UK).
(§2) Stock cultures of bacterial strains were cultivated in broth medium at 37 °C for 24 h prior to testing. For the preparation of inoculum, the turbidity of the bacterial suspension was adjusted to 0.5 McFarland standard using a Densi-La-Meter II (Lachema, Brno, Czech Republic) to obtain a final concentration of 10^8 CFU/mL.
(§3) The antibacterial potential of volatile plant-derived compounds in the liquid and vapor phases was determined using a newly developed broth macrodilution volatilization method performed in standard 2 mL microtubes with snap caps (Eppendorf, Hamburg, Germany). Initially, each sample of compound was dissolved in DMSO at maximum concentration of 1% and diluted in the appropriate broth medium. […] The concentration of β-thujaplicin started from 1024 µg/mL and from 128 µg/mL for thymohydroquinone and thymoquninone. In the second step, 90 µL of melted agar was pipetted into rims on the caps (Figure 3a) and inoculated with 5 µL of bacterial suspension after agar solidification. Subsequently, the appropriate concentrations of each sample previously prepared in test tubes were pipetted into microtubes in a final volume of 1500 µL. Then, the microtubes were inoculated with 10 µL of bacterial suspension and closed properly (Figure 3b). Microtubes containing inoculated and non-inoculated media were prepared as growth and purity controls simultaneously. After incubation at 37 °C for 24 h, the MICs were evaluated by the visual assessment of bacterial growth after coloring metabolically active bacterial colonies with MTT dye. The respective volumes of 30 and 375 µL of MTT at a concentration of 600 µg/mL were pipetted into the caps and in the microtubes when the interface of color change from yellow to purple (relative to that of colors in control wells) was recorded in broth and agar (Figure 3c). […] The MIC values were determined as the lowest concentrations that inhibited bacterial growth compared with the compound-free control and are expressed in µg/mL. In the case of the vapor phase, the concentration was also expressed in µg/cm^3 as the weight of the volatile agent per volume unit of a microtube. […] The respective susceptibilities of H. influenzae, S. aureus, S. pneumoniae, and S. pyogenes to ampicillin, oxacillin, amoxicillin, and tetracycline were checked as positive antibiotic controls. All tests were performed as three independent experiments, each carried out in triplicate, and the results were presented as median/modal values. According to the widely accepted norm in MIC testing, the mode and median were used for the final value calculation when triplicate endpoints were within the two- and three-dilution ranges, respectively.

[3] = test system: Streptococcus pneumoniae ATCC 49619; test: as above; type: cell-based; settings: for MIC: Streptococcus pneumoniae, ATCC49619
Excerpt: as §1, §2, §3

[4] = test system: Haemophilus influenzae ATCC 49247; test: as above; type: cell-based
Excerpt: as §1, §2, §3

[5] = test system: Staphylococcus aureus ATCC 29213; test: as above; type: cell-based
Excerpt: as §1, §2, §3

[6] = modified MTT cytotoxicity assay; settings: human
Protocol: (§4) Lung fibroblast cell line MRC-5, obtained from ATCC, was propagated in Eagle’s Minimum Essential Medium (EMEM) supplemented with 10% fetal bovine serum (FBS), 2 mM glutamine, 10 µL/mL non-essential amino acids, and 1% penicillin–streptomycin solution (10,000 units/mL of penicillin and 10 mg/mL of streptomycin); all these components were purchased from Sigma-Aldrich. The cells were pre-incubated in 96-well microtiter plates at a density of 2.5 × 10^3 cells per well for 24 h at 37 °C in a humidified incubator in an atmosphere of 5% CO2 in air.
(§5) A modified method based on the metabolization of MTT to blue formazan by mitochondrial dehydrogenases in living lung cells previously described by Mosmann was used. The lung fibroblast cells were treated for 72 h with the tested compounds dissolved in DMSO at a maximum concentration of 1% and diluted in the EMEM medium supplemented with 10% FBS. Twelve two-fold serially diluted concentrations of these agents ranging from 512 to 0.25 µg/mL were prepared. The microtiter plates were covered with EVA capmats^TM at 37 °C in a humidified atmosphere of 5% CO2 in air and cultivated for 72 h. Thereafter, MTT reagent (1 mg/mL) in EMEM solution was added to each well and the plates were incubated for an additional 2 h at 37 °C in a humidified atmosphere of 5% CO2 in air. The media were removed, and the intracellular formazan product was dissolved in 100 µL of DMSO. […] The absorbance was measured at 555 nm using a Tecan Infinite M200 spectrometer (Tecan Group, Mannedorf, Switzerland), and the viability was calculated in comparison to that of the untreated control. Three independent experiments (two replicates each) were performed for each test. […] Furthermore, IC80 was calculated as equivalent to the MIC endpoint for comparison of microbiological and toxicological data. Therapeutic indices (TIs) were defined as the ratio of x¯ -IC80 and x¯ -MIC values with the aim of determining the amount of effective antibacterial agents with the quantity causing toxicity.

[7] = test system: normal lung fibroblast cells MRC-5; test: modified MTT cytotoxicity assay; settings: for IC50: Homo sapiens, MRC5, 72 h, read-out: IC50 ± SD; for level of cytotoxic effect (WHO classification): classified by IC50 in lung fibroblast cells; for TI: therapeutic index, TI = IC80/x¯ -MIC
Protocol: as §4, §5

respiratory pathogens = test: broth macrodilution volatilization method, all four bacteria together; type: cell-based; settings: mean value of minimal inhibitory concentrations in broth medium
Excerpt: as §1, §2
The antibacterial potential of volatile plant-derived compounds in the liquid and vapor phases was determined using a newly developed broth macrodilution volatilization method performed in standard 2 mL microtubes with snap caps (Eppendorf, Hamburg, Germany). Initially, each sample of compound was dissolved in DMSO at maximum concentration of 1% and diluted in the appropriate broth medium. […] After incubation at 37 °C for 24 h, the MICs were evaluated by the visual assessment of bacterial growth after coloring metabolically active bacterial colonies with MTT dye. The respective volumes of 30 and 375 µL of MTT at a concentration of 600 µg/mL were pipetted into the caps and in the microtubes when the interface of color change from yellow to purple (relative to that of colors in control wells) was recorded in broth and agar (Figure 3c). […] The MIC values were determined as the lowest concentrations that inhibited bacterial growth compared with the compound-free control and are expressed in µg/mL. […]

mouse fibroblasts = test system: mouse fibroblasts; set-up: method as in PMID 17080016; settings: cited from earlier work
[8] = test system: healthy human lung MRC-5 cell lines; set-up: method as in PMID 28223069; settings: cited from earlier work
[9] = test system: normal IMR-90 lung fibroblasts; set-up: method as in PMID 20711342; settings: at a concentration of 32.84 µg/mL; cited from earlier work
[10] = test system: Trichophyton mentagrophytes; set-up: method as in PMID 16648950; settings: disc volatilization method; cited from earlier work
S. aureus [11] = test system: S. aureus; set-up: method as in PMID 28223069; settings: cited from earlier work
S. pneumoniae [12] = test system: S. pneumoniae; set-up: method as in PMID 28223069; settings: cited from earlier work
H. influenzae = test system: H. influenzae; set-up: method as in PMID 28223069; settings: cited from earlier work
S. pyogenes = test system: S. pyogenes; set-up: method as in PMID 31106894; settings: cited from earlier work
[13] = test system: human lung cancer tissues; set-up: method as in PMID 25105411, doi:10.1177/1934578X1801301223, doi:10.15324/kjcls.2019.51.2.221; settings: various types of human lung cancer tissues; cited from earlier work
oral microorganisms = test system: oral microorganisms; set-up: method as in PMID 27681039; settings: disc volatilization method; cited from earlier work
S. pneumoniae [14] = test system: S. pneumoniae; set-up: method as in PMID 31106894; settings: cited from earlier work
[15] = liquid phase, 37 °C, 24 h, read-out: Minimal Inhibitory Concentration, Broth
[16] = vapor phase, 37 °C, 24 h, read-out: Minimal Inhibitory Concentration, Agar
[17] = vapor phase, weight of volatile agent per volume unit of microtube, read-out: Minimal Inhibitory Concentration, Agar
[18] = ATCC29213, liquid phase, 37 °C, 24 h, read-out: Minimal Inhibitory Concentration, Broth
[19] = ATCC29213, vapor phase, 37 °C, 24 h, read-out: Minimal Inhibitory Concentration, Agar
[20] = ATCC29213, vapor phase, weight of volatile agent per volume unit of microtube, read-out: Minimal Inhibitory Concentration, Agar
[21] = MRC-5 normal lung fibroblast cells
[22] = ATCC49247, liquid phase, 37 °C, 24 h, read-out: Minimal Inhibitory Concentration, Broth
[23] = ATCC49247, vapor phase, 37 °C, 24 h, read-out: Minimal Inhibitory Concentration, Agar
[24] = ATCC49247, vapor phase, weight of volatile agent per volume unit of microtube, read-out: Minimal Inhibitory Concentration, Agar

SMILES | MIC [2, 15] | MIC [2, 16] | MIC [2, 17] | MIC [3, 15] | MIC [3, 16] | MIC [3, 17] | MIC [5, 18] | MIC [5, 19] | MIC [5, 20] | IC80 at 72 h [6, 21] | IC50 [7] | level of cytotoxic effect (WHO classification) [7] | TI [7] | x¯ -MIC (respiratory pathogens) | MIC [4, 22] | MIC [4, 23] | MIC [4, 24] | other results
Cc1cc(O)c(C(C)C)cc1O [thymohydroquinone] | 32 µg/mL (≈ 193 µM) | 32 µg/mL (≈ 193 µM) | 20 µg/mL (≈ 120 µM) | 16 µg/mL (≈ 96.3 µM) | 32 µg/mL (≈ 193 µM) | 20 µg/mL (≈ 120 µM) | 8 µg/mL (≈ 48.1 µM) | 16 µg/mL (≈ 96.3 µM) | 10 µg/mL (≈ 60.2 µM) | > 512 µg/mL | 2.64 ± 0.33 µg/mL (≈ 15.9 µM) | moderate toxicity | >34.13 | 15 µg/mL | – | – | – | MIC (S. aureus [1]; S. aureus ATCC 25923): 400 µg/mL (≈ 2410 µM); MIC ([4]; ATCC49247, 24 h, read-out: Minimal Inhibitory Concentration, Agar): 8 µg/mL (≈ 48.1 µM); MIC ([4]; ATCC49247, 24 h, read-out: Minimal Inhibitory Concentration, Broth): 4 µg/mL (≈ 24.1 µM); MIC ([4]; ATCC49247, read-out: Minimal Inhibitory Concentration, Agar): 5 µg/mL (≈ 30.1 µM); cell growth inhibition (mouse fibroblasts; at 10 µg/mL): 21%; cell growth inhibition (mouse fibroblasts; at 100 µg/mL): 63%
CC1=CC(=O)C(C(C)C)=CC1=O [thymoquinone] | 32 µg/mL (≈ 195 µM) | 32 µg/mL (≈ 195 µM) | 20 µg/mL (≈ 122 µM) | 16 µg/mL (≈ 97.4 µM) | 16 µg/mL (≈ 97.4 µM) | 10 µg/mL (≈ 60.9 µM) | 8 µg/mL (≈ 48.7 µM) | 16 µg/mL (≈ 97.4 µM) | 10 µg/mL (≈ 60.9 µM) | 15 ± 4.46 µg/mL (≈ 91.3 µM) | 1.21 ± 0.24 µg/mL (≈ 7.37 µM) | toxic | 1.00 | 15 µg/mL | 4 µg/mL (≈ 24.4 µM) | 8 µg/mL (≈ 48.7 µM) | 5 µg/mL (≈ 30.4 µM) | IC50 [8]: 1.70 µg/mL (≈ 10.4 µM); effect on viability [9]: did not alter the viability; MIC (S. aureus [1]; S. aureus ATCC 29213 and ATCC 25923): 8 µg/mL (≈ 48.7 µM); vapor activity [10]: very potent vapor activity; MIC, liquid phase (S. aureus [11]; liquid phase): 16 µg/mL (≈ 97.4 µM); MIC, vapor phase (S. aureus [11]; vapor phase): 16 µg/mL (≈ 97.4 µM); MIC, liquid phase (S. pneumoniae [12]; liquid phase): 16 µg/mL (≈ 97.4 µM); MIC, vapor phase (S. pneumoniae [12]; vapor phase): 32 µg/mL (≈ 195 µM); MIC, liquid phase (H. influenzae; liquid phase): 8 µg/mL (≈ 48.7 µM); MIC, vapor phase (H. influenzae; vapor phase): 8 µg/mL (≈ 48.7 µM)
CCC1=C[C@@H]2CN(C1)Cc1c([nH]c3ccccc13)[C@@](C(=O)OC)(c1cc3c(cc1OC)N(C)[C@H]1[C@@](O)(C(=O)OC)[C@H](OC(C)=O)[C@]4(CC)C=CCN5CC[C@]31[C@@H]54)C2 [vinorelbin, reference compound] | – | – | – | – | – | – | – | – | – | – | – | – | – | – | – | – | – | IC80 ± SD ([7]; 80% inhibitory concentration of proliferation, 72 h, plates sealed with EVA capmat): >10 µg/mL; IC50 ± SD ([7]; half maximal inhibitory concentration of proliferation, 72 h, plates sealed with EVA capmat): 0.54 ± 0.26 µg/mL (≈ 0.693 µM)
CC(C)c1cccc(=O)c(O)c1 [β-thujaplicin] | 64 µg/mL (≈ 390 µM) | 1020 µg/mL (≈ 6240 µM) | 640 µg/mL (≈ 3900 µM) | 64 µg/mL (≈ 390 µM) | 1020 µg/mL (≈ 6240 µM) | 640 µg/mL (≈ 3900 µM) | 64 µg/mL (≈ 390 µM) | 512 µg/mL (≈ 3120 µM) | 320 µg/mL (≈ 1950 µM) | – | 4.15 ± 0.45 µg/mL (≈ 25.3 µM) | moderate toxicity | 3.36 | 64 µg/mL | 64 µg/mL (≈ 390 µM) | 512 µg/mL (≈ 3120 µM) | 320 µg/mL (≈ 1950 µM) | MIC (S. pyogenes): 0.3 to 1 µg/mL; IC50 [13]: 0.26 to 12.32 µg/mL; MIC (S. aureus [1]; various strains of S. aureus): 12.5 to 160 µg/mL; Minimal Inhibitory Concentration, Agar ([2]; vapor phase, 37 °C, 24 h): low antibacterial efficacy; Minimal Inhibitory Concentration, Agar ([3]; vapor phase, 37 °C, 24 h): low antibacterial efficacy; growth-inhibitory effect in the gaseous phase (oral microorganisms): certain level of growth-inhibitory effect; IC80 at 72 h [6]: 215 ± 9.71 µg/mL (≈ 1310 µM); MIC (S. pneumoniae [14]): 0.3 to 1 µg/mL
